One data set has as its target Cyp3A4 (Homo sapiens, UniProt P08684). The following applies: substrate luciferin-6′ phenylpiperazinylyl; read-out: Cyp3A4 IC50 listed in PubChem; cited from earlier work.
In another data set the target is T1, CMKLR1 (Homo sapiens, UniProt Q99788).
T1 construct: host or cells: CHO-K1 (PathHunter)
T1 sequence (Q99788 1-373): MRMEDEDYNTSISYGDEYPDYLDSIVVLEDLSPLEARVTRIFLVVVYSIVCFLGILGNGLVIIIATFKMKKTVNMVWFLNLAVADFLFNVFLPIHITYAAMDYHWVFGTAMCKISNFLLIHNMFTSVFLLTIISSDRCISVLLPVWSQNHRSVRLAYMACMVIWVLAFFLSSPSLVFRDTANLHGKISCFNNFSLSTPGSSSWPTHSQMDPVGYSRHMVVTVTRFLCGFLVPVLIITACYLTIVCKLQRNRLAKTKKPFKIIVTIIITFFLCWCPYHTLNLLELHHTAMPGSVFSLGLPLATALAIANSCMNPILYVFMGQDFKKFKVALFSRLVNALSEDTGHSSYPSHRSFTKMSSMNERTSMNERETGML
In words: β-arrestin recruitment assay (chemerin-mediated β-arrestin2 association with CMKLR1). Format: cell-based. On the procedure:
(§1) FIG. 15A-15D. […] IC50 values were determined based on 6-point dose-response curves for each compound. (FIG. 15A) α-NETA. […] (FIG. 15A-15C) mean±SEM, n=3-18 independent experiments. […] 0.2 ml each compound (in 10% captisol) or vehicle control was administered by oral gavage beginning one day prior to psoriasis induction. Back skin thickness was measured daily and normalized to day 0. mean±SEM, n=10 mice for vehicle and α-NETA groups pooled from two independent trials; n=3 mice for (27) and (6) from one trial.
Cell culture. […] DiscoverX PathHunter® CHO-K1 CMKLR1 β-Arrestin Cells were grown in RPMI lacking phenol red (Gibco, Life Technologies), supplemented with L-glutamine, penicillin-streptomycin, sodium pyruvate, non-essential amino acid, BCS, hygromycin, and G418-sulfate.
β-arrestin recruitment assay. CMKLR1-CHO-β-Arrestin cells were seeded in 96 well plates at 1×10^5 cell/ml-100 ul/well and incubated overnight at 37° C., 5% CO2. The next day, media was removed and cells were pre-incubated in PBS with α-NETA or test compound (95 ul/well) in a 6 point dose response curve from 100 μM to 0.3 μM for 10 min at RT. (α-NETA and test compounds were reconstituted in DMSO; final DMSO concentration in each well was 0.1%). After 10 min, 5 ul of recombinant human chemerin (R&D Systems) at a final concentration of 20 nM was added to each well. Plates were incubated for 90 min at 37° C., 5% CO2. Media was then removed and 50 ul of chemiluminescent substrate (Tropix Gal-Screen, Applied Biosciences) was added. The plate was incubated for 1 hr at RT and luminescence was detected using the SpectraMax M5 plate reader (Molecular Devices). For each independent trial (single replicate dose curves), data was normalized to the maximum signal per compound tested and an IC50 value was generated using GraphPad Prism software. The average IC50 value for n independent trials (as specified in the table) is reported.
(In general: Arrestin recruitment assays detect the binding of arrestin to an activated receptor.)

A further data set has as its target T2, (hu)CMKLR1 L1.2 cells (Homo sapiens, UniProt Q99788).
T2 construct: expressed in transfected cells; host or cells: L1.2 pre-B cell lymphoma cells
T2 sequence (Q99788 1-373): T1 sequence (Q99788 1-373)
Nature of the data set: Chemotaxis assay (chemerin-dependent CMKLR1+ cell migration). The following applies: Table 3; migration toward huChemerin, 2 h transwell; read-out: Chemotaxis IC50 μM mean ± SEM (n). It is filed as cell-based. The procedure: Cell culture. (hu)CMKLR1 transfectants (generated in L1.2 pre-B cell lymphoma cells) were grown in RPMI 1640 (Corning) supplemented with L-glutamine, penicillin-streptomycin, and 10% BCS and G418-sulfate (KSE Scientific). DiscoverX PathHunter® CHO-K1 CMKLR1 β-Arrestin Cells were grown in RPMI lacking phenol red (Gibco, Life Technologies), supplemented with L-glutamine, penicillin-streptomycin, sodium pyruvate, non-essential amino acid, BCS, hygromycin, and G418-sulfate.
Chemotaxis assay. (hu)CMKLR1 L1.2 cells at 1×10^6 cell/ml were treated with 5 mM sodium butyrate (Sigma) overnight to induce hCMKLR1 expression. The next day, cells were washed in migration media (RPMI+0.5% BSA) and resuspended at 1.5-3×10^6 cell/ml. Cells were pre-incubated at RT for 10 min with various concentrations of α-NETA or test compounds (α-NETA and test compounds were reconstituted in DMSO; final DMSO concentration in each well was 0.1%). 100 ul of cells were added to the upper chamber of a 24-well transwell plate (5 um pore size, Costar). Cells were allowed to migrate toward huChemerin ([…] in migration media, bottom chamber) for 2 h, 37° C., 5% CO2. The number of migrated cells was quantified by flow cytometry (BD LSR2), and live cells were distinguished based on FSC×SSC properties. The background for this assay was typically low with 0 cells migrating to the buffer alone. For each independent trial, data was normalized to the maximum migration per compound tested and an IC50 value was generated using GraphPad Prism software. The average IC50 value for n independent trials (as specified in the table) is reported.

For data set [1], the system named is IMQ-induced psoriasis in mice. Nature of the data set: IMQ-induced psoriasis model. Format: in vivo, mouse. On the procedure:
FIG. 11A-11G. […] Representative images of the same mouse shown over time. […] Mice were treated twice daily with IMQ±dexamethasone (DEX, 200 ug/mouse) 1 h prior to IMQ treatment. […] (FIG. 11G) NK cell (CD45+DX5+CD11b-CD3-CD19-) infiltration into lesional or non-lesional adjacent skin was determined by flow cytometry (6 day timepoint) for IMQ-treated WT and chemerin KO mice. mean±SEM, n=4 mice per genotype, ***p<0.005 by 2-tailed t-test; **p<0.01 by 2-tailed t-test; *p<0.05 by 1-tailed t-test.
FIG. 13A-13D. […] Fold change with respect to day 0 measurements are shown. […] For A-C, n=3 untreated, n=5 IMQ-treated mice of each genotype, mean±SEM, *p<0.05 by 2-tailed t-test.
as §1

Data set [2] deals with cytochrome P450 (Cyp) drug metabolizing enzymes. Nature of the data set: Time-dependent (mechanism-based) Cyp inhibition. It is filed as in vitro ADME, human. On the procedure:
Cyp enzyme inhibition. Human liver microsomes were pre-incubated with 7 concentrations ([…], duplicate wells) of α-NETA for 30 min.

Another data set concerns the target T3, hERG (Homo sapiens, UniProt Q12809).
T3 construct: host or cells: CHO
In words: hERG inhibition patch-clamp assay, CHO-hERG cells. It is filed as cell-based. The conditions noted are these: hERG tail current, preliminary studies. The procedure:
Pregnane X receptor (PXR) activation was used as a marker of Cyp induction.
The cell was depolarized, and the hERG tail current was measured, and IC50 determined (Cyprotex/Evotec AG).
A general note: Block of hERG is tested as a sign of cardiac risk.

Like-named read-outs stand apart in the source and are kept apart here.

Cyp3A4, sequence (P08684 whole entry): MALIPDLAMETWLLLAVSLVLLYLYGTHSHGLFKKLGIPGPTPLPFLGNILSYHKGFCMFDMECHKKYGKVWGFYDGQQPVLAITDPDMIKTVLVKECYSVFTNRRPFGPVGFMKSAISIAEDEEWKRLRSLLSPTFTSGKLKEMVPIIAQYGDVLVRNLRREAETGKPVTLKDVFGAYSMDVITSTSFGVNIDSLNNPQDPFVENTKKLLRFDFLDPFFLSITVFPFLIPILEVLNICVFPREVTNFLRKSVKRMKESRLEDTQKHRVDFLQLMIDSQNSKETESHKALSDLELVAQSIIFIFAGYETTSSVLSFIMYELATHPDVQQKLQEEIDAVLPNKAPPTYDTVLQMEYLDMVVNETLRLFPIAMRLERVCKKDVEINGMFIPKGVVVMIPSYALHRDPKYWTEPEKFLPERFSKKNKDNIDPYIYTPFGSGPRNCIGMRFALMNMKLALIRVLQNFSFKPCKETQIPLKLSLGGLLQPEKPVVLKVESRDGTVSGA
T3 sequence (Q12809 whole entry): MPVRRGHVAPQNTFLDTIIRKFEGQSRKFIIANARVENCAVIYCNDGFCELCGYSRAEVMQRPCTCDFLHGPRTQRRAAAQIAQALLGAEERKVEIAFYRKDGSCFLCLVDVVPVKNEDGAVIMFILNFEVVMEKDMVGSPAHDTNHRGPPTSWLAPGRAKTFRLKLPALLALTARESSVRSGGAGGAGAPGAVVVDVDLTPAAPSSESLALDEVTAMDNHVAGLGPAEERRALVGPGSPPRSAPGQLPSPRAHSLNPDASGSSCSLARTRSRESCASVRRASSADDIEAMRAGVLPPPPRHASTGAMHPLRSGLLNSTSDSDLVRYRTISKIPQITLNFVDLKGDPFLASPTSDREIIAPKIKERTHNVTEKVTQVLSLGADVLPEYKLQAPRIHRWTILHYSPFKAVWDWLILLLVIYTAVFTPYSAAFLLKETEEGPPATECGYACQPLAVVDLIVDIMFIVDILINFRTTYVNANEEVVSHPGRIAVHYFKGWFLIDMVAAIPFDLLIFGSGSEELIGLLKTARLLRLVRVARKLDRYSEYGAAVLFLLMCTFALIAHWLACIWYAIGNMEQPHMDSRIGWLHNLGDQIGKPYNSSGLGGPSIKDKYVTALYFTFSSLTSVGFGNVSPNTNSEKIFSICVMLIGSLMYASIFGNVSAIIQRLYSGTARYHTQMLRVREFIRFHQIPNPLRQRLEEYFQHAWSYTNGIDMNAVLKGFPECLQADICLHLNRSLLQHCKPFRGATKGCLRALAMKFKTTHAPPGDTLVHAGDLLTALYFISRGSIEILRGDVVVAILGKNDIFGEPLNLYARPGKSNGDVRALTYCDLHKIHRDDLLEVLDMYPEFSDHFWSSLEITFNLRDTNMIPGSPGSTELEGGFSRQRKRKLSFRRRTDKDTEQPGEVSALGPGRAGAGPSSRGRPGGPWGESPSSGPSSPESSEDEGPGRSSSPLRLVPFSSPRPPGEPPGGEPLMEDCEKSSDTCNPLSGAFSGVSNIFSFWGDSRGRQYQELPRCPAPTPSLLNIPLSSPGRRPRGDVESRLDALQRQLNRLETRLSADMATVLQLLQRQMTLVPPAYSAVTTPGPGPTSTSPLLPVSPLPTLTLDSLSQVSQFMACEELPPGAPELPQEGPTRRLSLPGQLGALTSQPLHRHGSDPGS

As for `C[N+](C)(C)CCC(=O)c1cccc2ccccc12.[I-]` [α-NETA, 2-(α-naphthoyl) ethyltrimethylammonium iodide], the IC50 was 0.2 µM on Cyp3A4; 4.9 ± 1.5 µM at CMKLR1 (Table 2, tertiary amines, chemerin 20 nM, CHO transfectants, read-out: β-arrestin IC50 μM mean ± SEM (n)); 0.38 µM at CMKLR1 (initial studies, 4-5 years earlier, different source of α-NETA, read-out: β-arrestin2 inhibition IC50); 2.3 µM at CMKLR1 (values given in running text b220, read-out: β-arrestin2 assay IC50); 37 ± 8.9 µM on (hu)CMKLR1 L1.2 cells; more than 10 µM at hERG. In addition, the back skin thickening entry in data set [1] (10 mg/kg s.c., 24 h timepoint) is “significantly suppressed”. In addition, the back skin acanthosis result in data set [1] (30 mg/kg p.o. daily, 7 days, vs vehicle control) is listed as “significantly diminished”. Further, the “clinical features of experimental psoriasis” value in data set [1] (oral gavage in 10% captisol, FIG. 15D) was “suppressed”. Further, the “time-dependent (mechanism-based) Cyp inhibition” value in data set [2] is on record as “No time-dependent (mechanism-based) Cyp inhibition was detected”.

One may read the IC50 as the midpoint of a concentration-inhibition curve.

Source of the values: patent US11730705B2, “Small molecule CMKLR1 antagonists in inflammatory disease” (The Board of Trustees of the Leland Stanford Junior …, priority 2019, dated 2023).
